# From PMC12735872, “Development of ^18F/^11C-Labeled Pyrrolo-Pyridine/Pyrimidine LRRK2 Selective PET Radioligands” (Pharmaceuticals, 2025)
# How the values were obtained:
# LRRK2 [1] = assay: In vitro autoradiography, NHP brain slices; assay type: binding; details: baseline
# Experimental: Whole brain hemispheres were sectioned into horizontal slices with a thickness of 100 µm using a Leica cryomacrocut system. The autoradiographic procedures followed the same protocols established in previous studies conducted in our laboratory. The whole-hemisphere sections of 100 micron thickness were incubated for 90 min at room temperature with their corresponding radiotracer (4 MBq/200 mL) in TRIS buffer (pH 7.4) containing sodium chloride (120 mM), potassium chloride (5 mM), calcium chloride (2 mM), and albumin (0.1% w/v). After incubation, sections were washed three times in the same buffer at room temperature for five minutes each, briefly dipped in ice-cold distilled water, dried, and then placed in the phosphor imaging plates. Binding density standards were prepared by serial dilution of the radioligand stock solution in the assay buffer. Readings were taken with the Fujifilm BAS-5000 (Fujifilm, Tokyo, Japan), while quantitative analysis was conducted with the Multi Gauge 3.2 image analysis software (Fujifilm, Tokyo, Japan). For blocking experiments, adjacent brain sections were co-incubated with LuAF66583 (0.1 µM or 10 µM). […] The thickness differed from human tissue (20 µm).
# LRRK2 [2] = target: T1, LRRK2 (Homo sapiens, UniProt Q5S007); assay: In vitro autoradiography, human whole-hemisphere brain slices; assay type: binding; details: human brain slices, baseline
# T1 construct: Human brains without pathological findings were acquired from the National Institute of Forensic Medicine; from tissue; host or cells: human post-mortem control brain, whole-hemisphere sections (100 µm)
# T1 sequence (Q5S007 whole entry): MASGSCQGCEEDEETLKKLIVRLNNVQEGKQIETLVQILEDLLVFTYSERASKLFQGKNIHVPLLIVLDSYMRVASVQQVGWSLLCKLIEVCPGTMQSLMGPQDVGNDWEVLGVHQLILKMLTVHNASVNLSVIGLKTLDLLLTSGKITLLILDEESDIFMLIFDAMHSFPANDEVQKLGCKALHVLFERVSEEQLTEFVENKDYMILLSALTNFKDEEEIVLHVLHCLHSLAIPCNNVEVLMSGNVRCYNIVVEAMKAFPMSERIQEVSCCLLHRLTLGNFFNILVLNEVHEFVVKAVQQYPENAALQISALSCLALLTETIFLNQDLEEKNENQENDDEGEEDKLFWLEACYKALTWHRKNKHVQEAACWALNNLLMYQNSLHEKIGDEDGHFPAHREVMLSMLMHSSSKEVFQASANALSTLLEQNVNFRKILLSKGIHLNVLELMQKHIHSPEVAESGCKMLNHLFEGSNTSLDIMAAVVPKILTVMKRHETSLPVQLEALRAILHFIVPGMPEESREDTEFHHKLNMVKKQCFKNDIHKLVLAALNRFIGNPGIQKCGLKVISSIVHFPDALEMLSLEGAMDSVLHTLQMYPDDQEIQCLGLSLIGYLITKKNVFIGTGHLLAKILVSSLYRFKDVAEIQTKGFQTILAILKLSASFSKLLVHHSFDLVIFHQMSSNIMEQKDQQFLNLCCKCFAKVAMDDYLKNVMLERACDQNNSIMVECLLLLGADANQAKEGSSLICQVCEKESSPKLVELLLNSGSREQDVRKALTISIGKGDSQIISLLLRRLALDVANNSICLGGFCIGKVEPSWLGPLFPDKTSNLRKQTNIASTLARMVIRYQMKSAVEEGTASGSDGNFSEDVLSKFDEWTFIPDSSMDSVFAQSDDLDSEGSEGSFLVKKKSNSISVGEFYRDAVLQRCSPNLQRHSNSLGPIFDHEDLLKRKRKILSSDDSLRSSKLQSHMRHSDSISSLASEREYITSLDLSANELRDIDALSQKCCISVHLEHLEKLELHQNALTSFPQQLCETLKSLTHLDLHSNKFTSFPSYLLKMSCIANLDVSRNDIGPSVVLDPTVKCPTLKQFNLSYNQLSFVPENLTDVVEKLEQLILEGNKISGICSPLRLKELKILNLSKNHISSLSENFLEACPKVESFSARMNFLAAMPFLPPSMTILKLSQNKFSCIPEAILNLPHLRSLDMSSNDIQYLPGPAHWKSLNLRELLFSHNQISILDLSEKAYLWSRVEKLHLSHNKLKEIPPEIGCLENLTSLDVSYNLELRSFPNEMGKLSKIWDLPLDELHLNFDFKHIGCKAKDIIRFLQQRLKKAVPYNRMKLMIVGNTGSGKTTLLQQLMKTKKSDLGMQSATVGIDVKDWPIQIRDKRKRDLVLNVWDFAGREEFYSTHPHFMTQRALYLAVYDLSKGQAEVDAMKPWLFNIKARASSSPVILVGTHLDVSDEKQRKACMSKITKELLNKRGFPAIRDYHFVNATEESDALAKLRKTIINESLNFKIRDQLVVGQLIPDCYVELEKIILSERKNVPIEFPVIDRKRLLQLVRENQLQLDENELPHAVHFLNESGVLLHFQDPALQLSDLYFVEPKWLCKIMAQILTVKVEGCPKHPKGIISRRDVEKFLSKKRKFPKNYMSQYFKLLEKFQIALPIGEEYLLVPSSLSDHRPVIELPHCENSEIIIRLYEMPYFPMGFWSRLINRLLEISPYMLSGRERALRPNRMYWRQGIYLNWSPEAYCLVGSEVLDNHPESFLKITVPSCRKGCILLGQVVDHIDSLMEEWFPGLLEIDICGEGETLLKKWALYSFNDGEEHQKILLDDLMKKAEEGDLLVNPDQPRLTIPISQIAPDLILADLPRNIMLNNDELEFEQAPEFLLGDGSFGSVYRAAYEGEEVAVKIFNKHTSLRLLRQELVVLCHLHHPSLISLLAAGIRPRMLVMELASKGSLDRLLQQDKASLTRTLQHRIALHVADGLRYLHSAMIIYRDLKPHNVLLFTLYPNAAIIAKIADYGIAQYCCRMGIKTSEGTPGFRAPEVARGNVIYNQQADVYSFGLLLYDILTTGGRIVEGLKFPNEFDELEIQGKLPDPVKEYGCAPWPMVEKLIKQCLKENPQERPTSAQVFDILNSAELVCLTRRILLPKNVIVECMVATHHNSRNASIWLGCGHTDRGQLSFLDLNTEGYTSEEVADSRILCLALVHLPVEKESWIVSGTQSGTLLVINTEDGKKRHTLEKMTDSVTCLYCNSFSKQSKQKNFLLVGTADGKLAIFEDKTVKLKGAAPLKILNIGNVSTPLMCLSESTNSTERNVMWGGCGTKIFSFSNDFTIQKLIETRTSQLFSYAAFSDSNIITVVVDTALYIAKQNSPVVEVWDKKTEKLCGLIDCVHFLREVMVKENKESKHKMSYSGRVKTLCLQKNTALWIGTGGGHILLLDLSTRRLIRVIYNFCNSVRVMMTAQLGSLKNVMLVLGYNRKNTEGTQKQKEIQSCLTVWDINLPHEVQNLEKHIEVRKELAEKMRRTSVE
# Experimental: Human brains without pathological findings were acquired from the National Institute of Forensic Medicine at Karolinska Institutet in Stockholm, Sweden. These brains were obtained during forensic autopsies (designated as control brain) and were processed in a manner like previously described methods. […] The brain was removed, and its tissues were kept in −85 °C until the sectioning process. The whole brain hemispheric slices were subsequently maintained at −25 °C until the commencement of autoradiography procedures. […] The sectioning of the brain and the autoradiography experiments were performed at the Psychiatry section, Department of Neuroscience, Karolinska Institutet, Sweden.
# Whole brain hemispheres were sectioned into horizontal slices with a thickness of 100 µm using a Leica cryomacrocut system. The autoradiographic procedures followed the same protocols established in previous studies conducted in our laboratory. The whole-hemisphere sections of 100 micron thickness were incubated for 90 min at room temperature with their corresponding radiotracer (4 MBq/200 mL) in TRIS buffer (pH 7.4) containing sodium chloride (120 mM), potassium chloride (5 mM), calcium chloride (2 mM), and albumin (0.1% w/v). After incubation, sections were washed three times in the same buffer at room temperature for five minutes each, briefly dipped in ice-cold distilled water, dried, and then placed in the phosphor imaging plates. Binding density standards were prepared by serial dilution of the radioligand stock solution in the assay buffer. Readings were taken with the Fujifilm BAS-5000 (Fujifilm, Tokyo, Japan), while quantitative analysis was conducted with the Multi Gauge 3.2 image analysis software (Fujifilm, Tokyo, Japan). For blocking experiments, adjacent brain sections were co-incubated with LuAF66583 (0.1 µM or 10 µM).
# [3] = Radiometabolite analysis in monkey plasma (gradient HPLC); assay type: in vivo, cynomolgus monkey; details: baseline PET
# Experimental: The technique published earlier was utilized for the analysis of radiometabolites in NHP blood plasma. During the entire PET measurement, the percentage of the injected radioligand and its corresponding radioactive metabolites and radioactivity was measured with a reverse-phase HPLC system with UV absorbance detector (λ = 254 nm) and a radioactive detector. […] The blood samples were centrifuged at 4000 rpm for 2 min to separate plasma. From the centrifuged plasma, the resulting plasma was withdrawn and spiked with 1.4 times its volume of acetonitrile before being spun at 6000 rpm for 4 min. The supernatant, collected after the spun at 6000 rpm, was diluted with 3 mL of water, which was then injected into the HPLC system. The HPLC system was constructed with an Agilent 1200 series binary pump (Agilent, Santa Clara, CA, USA), a Rheodyne 7725i (Thermo Scientific, Waltham, MA, USA) manual injection valve, a 5.0 mL loop, and an Oyokoken S-2493Z radiation detector (Oyokoken, Tokyo, Japan) fitted with 50 mm lead shielding, which houses the detector. Chromatographic separation of the radiometabolites from the unchanged radioligand was performed via gradient elution on a semi-preparative reverse-phase ACE 5 µm C18 HL column (250 × 10 mm) using a mobile phase of acetonitrile (A) and ammonium formate 0.1 M (B). A flow rate of 5.0 mL/min was utilized according to the program 0–6.0 min: (A/B) 40:60 → 90:10 v/v; 6.0–10.0 min: (A/B) 90:10 (v/v). The radioactive peak corresponding to the parent radioligand was then integrated from the data output of the HPLC column. The area of this peak was calculated relative to the total area detected for all radioactive compounds. To evaluate the radioactivity recovery from the system, the measurement was taken from a 2 mL aliquot of the eluate taken from the HPLC column and measured against the total injected radioactivity.
# [4] = Stability of formulated radioligand in PBS (analytical HPLC); assay type: physicochemical; details: pH 7.4, for 120 min
# Experimental: The radiochemical purity and stability of all three radioligands ([^11C]3, [^18F]1 and [^18F]2) were determined using analytical HPLC coupled with an XBridge analytical column (C18 5 µm, 4.6 × 150 mm particle size), a Merck-Hitachi L-7100 pump, an L-7400 UV detector, and a GM tube for radioactivity detection (VWR International). A mixture of acetonitrile (25%) and HCO2NH4 (0.1 M aq. solution) (75%) with a flow rate of 2 mL/min was used as HPLC isocratic mobile phase. The HPLC liquid flow was monitored using a UV absorbance detector (λ = 254 nm) in conjunction with a radioactive detector (BETA-flow, Beckman, Fullerton, CA, USA). All three radioligands were eluted with a retention time (tR) of 4.0–4.5 min, and the total run time of the HPLC program was 9 min. The identity of the radiolabeled compound was confirmed by co-injecting the corresponding authentic reference standard.
Binding of radioligand in brain slices (ARG) (LRRK2 [1]),Binding of radioligand in brain slices (ARG) (LRRK2 [2]),"Parent compound, share of eluted plasma radioactivity ([3]; at 5 min)","Parent compound, share of eluted plasma radioactivity ([3]; at 90 min)",Stability in PBS buffer [4],Compound
clear binding,clear binding,over 90%,around 10%,demonstrated stability,"C[C@@H]1C[C@@H]([18F])CN1c1c(C#N)c2c(N)nccc2n1C [[^18F]1, 4-Amino-2-((2R,4R)-4-[^18F]fluoro-2-methylpyrrolidin-1-yl)-1-methyl-1H-pyrrolo[3,2-c]pyridine-3-carbonitrile]"
displayed binding,displayed binding,over 90%,around 10%,demonstrated stability,"C[C@@H]1C[C@@H]([18F])CN1c1c(C#N)c2c(N)ncnc2n1C [[^18F]2, 4-Amino-6-((2R,4R)-4-[^18F]fluoro-2-methyl Pyrrolidin-1-yl)-7-methyl-7H-pyrrolo[2,3-d]pyrimidine-5-carbonitrile]"
